The values that follow come from patent publication EP4775208A1, “USE OF PRMT5 INHIBITOR IN TREATMENT OF TUMORS OR CANCERS” (Apeiron Therapeutics (Hong Kong) Ltd., priority 2023, dated 2025).

Common to all, as to type: cell-based
In one test the test system is CFPAC-1. Nature of the test: Mini cell panel: inhibition of proliferation of CFPAC-1 cells. The note with it: Homo sapiens, CFPAC-1, MTAP Wild type. The source says:
(§1) Test 9: Mini Cell Panel: Assay for Inhibitory Activity of Compounds against Proliferation of 20 Tumor Cell Lines
(§2) Materials and Cells: Fifteen MTAP(-/-) cell lines and five MTAP wild-type cell lines were purchased from ATCC (USA). Cell culture media, fetal bovine serum (FBS), and penicillin-streptomycin were purchased from Thermo Fisher Scientific (USA). 384-well plates were purchased from PerkinElmer (USA). The CellTiter-Glo assay kit was purchased from Promega (USA). Paclitaxel was used as the control compound.

The test system of the next test is SK-MEL-5. Nature of the test: Mini cell panel: inhibition of proliferation of SK-MEL-5 cells. The note with it: Homo sapiens, MTAP (-/-).
From the text: as §1, §2

The next test deals with MDA-MB-231. Nature of the test: Mini cell panel: inhibition of proliferation of MDA-MB-231 cells. The note with it: Homo sapiens, MDA-MB-231, MTAP (-/-).
From the text: as §1, §2

Another test concerns SW780. Nature of the test: Mini cell panel: inhibition of proliferation of SW780 cells. To be noted: Homo sapiens, SW780, MTAP (-/-).
From the text: as §1, §2

Another test concerns NCI-H647. Nature of the test: Mini cell panel: inhibition of proliferation of NCI-H647 cells. To be noted: Homo sapiens, NCI-H647, MTAP (-/-).
From the text: as §1, §2

The next test concerns Calu-1. Nature of the test: Mini cell panel: inhibition of proliferation of Calu-1 cells. To be noted: Homo sapiens, Calu-1, MTAP Wild type.
From the text: as §1, §2

The test system of a further test is LU99. Nature of the test: Mini cell panel: inhibition of proliferation of LU99 cells. To be noted: Homo sapiens, Lu-99, MTAP (-/-).
From the text: as §1, §2

A further test concerns Aspc-1. Nature of the test: Mini cell panel: inhibition of proliferation of Aspc-1 cells. The note with it: Homo sapiens, ASPC1, MTAP Wild type.
From the text: as §1, §2

A further test relates to MKN-45. Nature of the test: Mini cell panel: inhibition of proliferation of MKN-45 cells. To be noted: Homo sapiens, MKN-45, MTAP (-/-).
From the text: as §1, §2

A further test relates to A549. Nature of the test: Mini cell panel: inhibition of proliferation of A549 cells. To be noted: Homo sapiens, A549, MTAP (-/-).
From the text: as §1, §2

In a further test the test system is SW1573. Nature of the test: Mini cell panel: inhibition of proliferation of SW1573 cells. To be noted: Homo sapiens, SW1573, MTAP (-/-).
From the text: as §1, §2

The test system of the next test is SU-DHL-10. Nature of the test: Mini cell panel: inhibition of proliferation of SU-DHL-10 cells. The note with it: Homo sapiens, SU-DHL10, MTAP Wild type.
From the text: as §1, §2

The next test deals with ACHN. Nature of the test: Mini cell panel: inhibition of proliferation of ACHN cells. To be noted: Homo sapiens, ACHN, MTAP (-/-).
From the text: as §1, §2

Another test deals with SU-DHL-4. Nature of the test: Mini cell panel: inhibition of proliferation of SU-DHL-4 cells. The note with it: Homo sapiens, SU-DHL-4, MTAP Wild type.
From the text: as §1, §2

Another test deals with LN-18. Nature of the test: Mini cell panel: inhibition of proliferation of LN-18 cells. The note with it: Homo sapiens, LN-18, MTAP (-/-).
From the text: as §1, §2

In the next test the test system is U87MG. Nature of the test: Mini cell panel: inhibition of proliferation of U87MG cells. The note with it: Homo sapiens, U-87 MG, MTAP (-/-).
From the text: as §1, §2

A further test has as its system U87MG MTAP(-/-) cells. Nature of the test: Inhibition of proliferation of U87MG MTAP(-/-) cells (CellTiter-Glo). The note with it: Homo sapiens, U-87 MG, 144 h, cell proliferation, 6 days. As to the method:
Test 7: Assay for Inhibitory Activity of Compounds against U87MG MTAP(-/-) Cell Proliferation
Materials and Cells: The U87MG MTAP(-/-) cell line was purchased from ATCC (USA). Cell culture media, fetal bovine serum (FBS), and penicillin-streptomycin were purchased from Thermo Fisher Scientific (USA). 384-well plates were purchased from PerkinElmer (USA). The CellTiter-Glo assay kit was purchased from Promega (USA).
Cell Culture: U87MG MTAP(-/-) cells were cultured in a medium supplemented with 10% fetal bovine serum (FBS) and 1% penicillin-streptomycin at 37°C with 5% CO2. Only cells in the logarithmic growth phase were used for experiments.
Cell Proliferation Inhibition Assay: The antiproliferative activity of the compounds against U87MG MTAP(-/-) cells was assessed using the CellTiter-Glo assay kit. Cell suspensions were adjusted to the appropriate density and seeded into 384-well plates at a volume of 40 µL per well, then incubated overnight at 37°C with 5% CO2. Compounds (40 nL) were added to each well to achieve final concentrations ranging from 0 to 10,000 nM (starting concentration 10,000 nM, 3-fold serial dilutions, 10 dose points), with a final DMSO concentration of […]. The cell plates were incubated at 37°C with 5% CO2 for 6 days. Subsequently, 40 µL of CellTiter-Glo reagent was added to measure cell viability. Paclitaxel was used as a control compound.

The test system of another test is PSN-1. Nature of the test: Mini cell panel: inhibition of proliferation of PSN-1 cells. The note with it: Homo sapiens, PSN1, MTAP (-/-).
From the text: as §1, §2

For another test, the system named is BxPc-3. Nature of the test: Mini cell panel: inhibition of proliferation of BxPc-3 cells. The note with it: Homo sapiens, BXPC-3, MTAP (-/-).
From the text: as §1, §2

The next test relates to DOHH-2. Nature of the test: Mini cell panel: inhibition of proliferation of DOHH-2 cells. The note with it: Homo sapiens, DOHH-2, MTAP (-/-).
From the text: as §1, §2

What is called IC50 is the point on the concentration scale where inhibition reaches its midpoint. High values mean weaker potency, low ones greater potency. In the case of `CC(=O)O[C@H]1C(=O)[C@@]2(C)[C@H]([C@H](OC(=O)c3ccccc3)[C@]3(O)C[C@H](OC(=O)[C@H](O)[C@@H](NC(=O)c4ccccc4)c4ccccc4)C(C)=C1C3(C)C)[C@]1(OC(C)=O)CO[C@@H]1C[C@@H]2O` [Paclitaxel, reference compound], the IC50 was 1.1 nM in the test with CFPAC-1; 7.8 nM in the test on SK-MEL-5; 2.5 nM in the test on MDA-MB-231; 1.6 nM in the test on SW780; 1.4 nM with NCI-H647; 9.8 nM with Calu-1. In addition, the IC50 was 1.5 nM in the test on LU99; 3.4 nM in the test with Aspc-1; 1.8 nM with MKN-45; 1.9 nM in the test on A549; 2.5 nM in the test with SW1573; 2.8 nM in the test with SU-DHL-10. Also, the IC50 in the test on ACHN came out at 4.1 nM; in the test on SU-DHL-4 it was 1.9 nM; in the test on LN-18, 20.6 nM; in the test with U87MG it was 5.2 nM; in the test with U87MG MTAP(-/-) cells, 5.55 nM; in the test on PSN-1, 2.9 nM. The values for the IC50 in the test on BxPc-3 and with DOHH-2 were 0.9 nM and 3.4 nM, respectively.
